Series [1] has as its system LPS-induced TNF-α production from human PBMC. Description: LPS-induced TNF-α production from human PBMC. It counts as cell-based. Particulars: LPS 100 ng/ml, 18-20 hours, ELISA. On the procedure: Lipopolysaccharide (LPS) is an endotoxin produced by gram-negative bacteria such as E. coli which induces production of many pro-inflammatory cytokines, including TNF-α In peripheral blood mononuclear cells (PBMC), the TNF-α produced in response to LPS is derived from monocytes, which comprise approximately 5-20% of the total PBMC. Compounds were tested for the ability to inhibit LPS-induced TNF-α production from human PBMC as previously described (Muller et al. 1996, J. Med Chem. 39:3238). PBMC from normal donors were obtained by Ficoll Hypaque (Pharmacia, Piscataway, N.J., USA) density centrifugation. Cells were cultured in RPMI (Life Technologies, Grand Island, N.Y., USA) supplemented with 10% AB± human serum (Gemini Bio-products, Woodland, Calif., USA), 2 mM L-glutamine, 100 U/ml penicillin, and 100 μg/ml streptomycin (Life Technologies).
PBMC (2×10^5 cells) were plated in 96-well flat-bottom Costar tissue culture plates (Coming, N.Y., USA) in triplicate. Cells were stimulated with LPS (Sigma, St. Louis, Mo., USA) at 100 ng/ml in the absence or presence of compounds. Compounds (Celgene Corp., Warren, N.J., USA) were dissolved in DMSO (Sigma) and further dilutions were done in culture medium immediately before use. The final DMSO concentration in all samples was 0.25%. Compounds were added to cells 1 hour before LPS stimulation. […]

In series [2] the test system is IL-1β-induced TNF-α production from human PBMC. Description: IL-1β-induced TNF-α production from human PBMC. In kind it is cell-based. As to conditions: recombinant human IL-1β 50 ng/ml, 18 hours. The procedure: During the course of inflammatory diseases, TNF-α production is often stimulated by the cytokine IL-1β, rather than by bacterially derived LPS. Compounds are tested for the ability to inhibit EL-1β-induced TNF-α production from human PBMC as described above for LPS-induced TNF-α production, except that the PBMC are isolated from source leukocyte units (Sera-Tec Biologicals, North Brunswick, N.J., USA) by centrifugation on Ficoll-Paque Plus (Amersham Pharmacia, Piscataway, N.J., USA), plated in 96-well tissue culture plates at 3×10^5 cells/well in RPMI-1640 medium (BioWhittaker, Walkersville, Md., USA) containing 10% heat-inactivated fetal bovine serum (Hyclone), 2 mM L-glutamine, 100 U/ml penicillin, and […] (complete medium), pretreated with compounds at 10, 2, 0.4, 0.08, 0.016, 0.0032, 0.00064, and 0 μM in duplicate at a final DMSO concentration of 0.1% at 37° C. in a humidified incubator at 5% CO2 for 1 hour, then stimulated with 50 ng/ml recombinant human IL-1β (Endogen) for 18 hours.

Series [3] deals with PDE4 enzyme purified from U937 human monocytic cells. Briefly: PDE4 inhibition (enzyme purified from U937 cells). In kind it is biochemical. As to conditions: 1 μM cAMP, 30 min at 30° C. The procedure:
PDE4 enzyme was purified from U937 human monocytic cells by gel filtration chromatography as previously described (Muller et al. 1998, Bioorg. & Med Chem Lett 8:2669-2674). Phosphodiesterase reactions were carried out in 50 mM Tris HCl pH 7.5, 5 mM MgCl2, 1 μM cAMP, 10 nM [^311)-cAMP for 30 min at 30° C., terminated by boiling, treated with 1 mg/ml snake venom, and separated using AG-IXS ion exchange resin (BioRad) as described (Muller et al. 1998, Bioorg. & Med Chem Lett 8:2669-2674). Reactions consumed less than 15% of available substrate.

In another series the test system is bovine PDE1. Briefly: PDE selectivity, single concentration, PDE1. It counts as biochemical. As to conditions: for PDE Specificity Ratio PDE1/PDE4: from above data. On the procedure: (§1) The specificity of compounds for specific PDE's was assessed by testing at a single concentration (100 μM) against bovine PDE1, human PDE2, PDE3, and PDE5 from human platelets (Hidaka and Asano 1976, Biochem. Biophys. Acta 429:485, and Nicholsen et al. 1991, Trends Pharmaco. Sci. 12:19).

The target in the next series is human PDE2 (Homo sapiens, UniProt O00408). Briefly: PDE selectivity, single concentration, PDE2. It counts as biochemical. On the procedure: as §1
Series [4] has as its system PDE3 from human platelets. Description: PDE selectivity, single concentration, PDE3. It counts as biochemical. Particulars: for PDE Specificity Ratio PDE3/PDE4: from above data. The procedure: as §1
Series [5] deals with T1, PDE5 from human platelets (Homo sapiens, UniProt O76074).
T1 construct: PDE3, and PDE5 from human platelets; from tissue; host or cells: human platelets
Description: PDE selectivity, single concentration, PDE5. As to conditions: for PDE Specificity Ratio PDE5/PDE4: from above data; for inhibition at 100 µM: read-out: PDE5 (% inhib at 100 μM). In kind it is biochemical. The procedure: as §1

A short description of series [6]: Pharmacokinetics after oral administration in female rats. As to conditions: rat, in vivo, 80 mg/kg oral in aqueous CMC. An excerpt: Table III presents plasma concentration data (ng/mL) taken at 0.5 hr., 1 hr., 2 hrs., 4 hrs., 7 hrs., 10 hrs. and 24 hrs. following the administration, Cmax, Tmax and AUC.

SMILES strings stand for the structures.

Sequence of human PDE2 (O00408 whole entry): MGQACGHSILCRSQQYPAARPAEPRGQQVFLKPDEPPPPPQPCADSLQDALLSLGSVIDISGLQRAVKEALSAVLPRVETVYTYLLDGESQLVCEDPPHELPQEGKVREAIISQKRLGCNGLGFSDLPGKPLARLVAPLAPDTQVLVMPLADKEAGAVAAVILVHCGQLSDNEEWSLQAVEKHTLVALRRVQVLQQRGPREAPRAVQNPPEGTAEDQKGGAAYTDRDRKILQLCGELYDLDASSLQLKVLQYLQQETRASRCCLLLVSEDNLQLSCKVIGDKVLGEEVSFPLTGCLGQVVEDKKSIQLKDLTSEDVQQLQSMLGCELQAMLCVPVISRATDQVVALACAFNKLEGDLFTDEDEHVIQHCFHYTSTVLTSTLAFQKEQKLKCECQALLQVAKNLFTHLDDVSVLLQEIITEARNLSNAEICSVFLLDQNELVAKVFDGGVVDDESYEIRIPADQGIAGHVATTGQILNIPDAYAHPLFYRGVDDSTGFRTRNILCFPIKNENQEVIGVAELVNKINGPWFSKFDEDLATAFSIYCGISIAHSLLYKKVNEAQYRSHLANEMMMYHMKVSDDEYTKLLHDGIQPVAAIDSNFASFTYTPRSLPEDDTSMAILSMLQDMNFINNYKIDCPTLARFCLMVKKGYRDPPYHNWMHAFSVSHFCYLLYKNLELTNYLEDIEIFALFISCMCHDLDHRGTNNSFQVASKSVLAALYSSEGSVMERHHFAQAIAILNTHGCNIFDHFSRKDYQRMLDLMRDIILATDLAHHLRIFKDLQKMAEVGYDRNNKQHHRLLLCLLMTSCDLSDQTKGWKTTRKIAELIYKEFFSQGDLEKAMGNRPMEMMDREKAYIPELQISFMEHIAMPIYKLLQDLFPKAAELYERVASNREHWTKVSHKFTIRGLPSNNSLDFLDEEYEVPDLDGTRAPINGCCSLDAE

In the case of `COc1ccc(C(CC(N)=O)N2Cc3ccccc3C2=O)cc1OC` (single isomer, unassigned; (+)) [Compound B, (+)-3-(3,4-dimethoxy-phenyl)-3-(1-oxo-1,3-dihydro-isoindol-2-yl)-propionamide], the IC50 (commonly the concentration needed to halve the response being measured) in series [1] stood at 100 µM; in series [2] it was 86 µM; in series [3], 67 µM. Besides, the “PDE1 (% inhib at 100 μM)” value with bovine PDE1 stood at 47%. Moreover, the “PDE Specificity Ratio PDE1/PDE4” value in the series on bovine PDE1 is reported as “˜1 fold”. The “PDE Specificity Ratio PDE2/PDE4” value on human PDE2 (from above data) is greater than 1 fold. Also, the results for the inhibition at 100 µM (on human PDE2 (read-out: PDE2 (% inhib at 100 μM)); in series [5]) were 22% and 5%, respectively. Also, the “PDE3 (% inhib at 100 μM)” value in series [4] is recorded as 50%. For the same molecule, the “PDE Specificity Ratio PDE3/PDE4” value in series [4] is recorded as “˜1 fold”. For the same molecule, the “PDE Specificity Ratio PDE5/PDE4” value in series [5] is listed as greater than 1 fold.
In series [1], `COc1ccc(C(CC(N)=O)N2Cc3ccccc3C2=O)cc1OC` (racemic) [Racemic Compound, 3-(3,4-dimethoxy-phenyl)-3-(1-oxo-1,3-dihydro-isoindol-2-yl)-propionamide] showed an IC50 of 21 µM. In addition, the half-inhibitory concentration (IC50) in series [2] came to 16 µM. Further, in series [3], the IC50 came out at 15 µM. In addition, in the series with bovine PDE1, the “PDE1 (% inhib at 100 μM)” value was found to be 20% and the “PDE Specificity Ratio PDE1/PDE4” value is reported as greater than 4.8 fold. Further, in series [4], the “PDE3 (% inhib at 100 μM)” value is recorded as 51% and the “PDE Specificity Ratio PDE3/PDE4” value is listed as “˜4.8 fold”. In series [5], the “PDE Specificity Ratio PDE5/PDE4” value is recorded as greater than 4.8 fold and the inhibition at 100 µM came out at 14%. In addition, the concentration at 0 h in series [6] (0 hour, read-out: plasma concentration) turned out to be 0 ng/mL. Further, in series [6], the exposure (AUC) (commonly concentration integrated over time) turned out to be 44200 ng·h/mL; the Cmax – broadly, the highest concentration seen after dosing – is 4910 ng/mL; the Tmax (commonly the time at which the peak concentration occurs) worked out at 2 h. For the same molecule, the concentration at 0.5 h in series [6] (0.5 hour, read-out: plasma concentration) worked out at 3900 ng/mL. In addition, the concentration at 1 h in series [6] (1 hour, read-out: plasma concentration) amounted to 4600 ng/mL. In addition, the concentration at 2 h in series [6] (2 hours, read-out: plasma concentration) came to 4120 ng/mL. Further, the concentration at 4 h in series [6] (4 hours, read-out: plasma concentration) stood at 2980 ng/mL. In addition, the concentration at 7 h in series [6] (7 hours, read-out: plasma concentration) worked out at 2520 ng/mL. Further, the concentration at 10 h in series [6] (10 hours, read-out: plasma concentration) stood at 2060 ng/mL. The concentration at 24 h in series [6] (24 hours, read-out: plasma concentration) was determined as 9.2 ng/mL.

For the origin of these results see US20040167199A1, “Methods of using and compositions comprising (-)-3-(3,4-dimethoxy-phenyl)-3-(1-oxo-1,3-dihydro-isoindol-2-yl)-propionamide” (Celgene Corporation, priority 2002, published 2004).
